Measured values published in PMC4620497 (Scientific Reports, 2015).
Where two headings read alike, the source gives them in different places.

Assays:
CDK2 = CDK2 (Homo sapiens, UniProt P24941); design: method as in earlier work; details: Table S1; cited from earlier work
YANK1 = target: T1, YANK1 (Homo sapiens, UniProt Q8WU08); assay: KINOMEscan panel screen; type: binding; details: read-out: Percent Control(%)
T1 construct: purchased DiscoveRx KINOMEscan (Ambit Biosciences)

[1] = target: T2, ABL1(F317L)-nonphosphorylated (Homo sapiens, UniProt P00519, F317L); assay: KINOMEscan panel screen; type: binding; details: read-out: Percent Control(%)
T2 construct: purchased DiscoveRx KINOMEscan (Ambit Biosciences)

[2] = target: T3, ABL1(Y253F)-phosphorylated (Homo sapiens, UniProt P00519, Y253F); assay: KINOMEscan panel screen; type: binding; details: read-out: Percent Control(%)
T3 construct: purchased DiscoveRx KINOMEscan (Ambit Biosciences)

EPHB1 = target: T4, EPHB1 (Homo sapiens, UniProt P54762); assay: KINOMEscan panel screen; type: binding; details: read-out: Percent Control(%)
T4 construct: purchased DiscoveRx KINOMEscan (Ambit Biosciences)
T4 sequence (P54762 18-984): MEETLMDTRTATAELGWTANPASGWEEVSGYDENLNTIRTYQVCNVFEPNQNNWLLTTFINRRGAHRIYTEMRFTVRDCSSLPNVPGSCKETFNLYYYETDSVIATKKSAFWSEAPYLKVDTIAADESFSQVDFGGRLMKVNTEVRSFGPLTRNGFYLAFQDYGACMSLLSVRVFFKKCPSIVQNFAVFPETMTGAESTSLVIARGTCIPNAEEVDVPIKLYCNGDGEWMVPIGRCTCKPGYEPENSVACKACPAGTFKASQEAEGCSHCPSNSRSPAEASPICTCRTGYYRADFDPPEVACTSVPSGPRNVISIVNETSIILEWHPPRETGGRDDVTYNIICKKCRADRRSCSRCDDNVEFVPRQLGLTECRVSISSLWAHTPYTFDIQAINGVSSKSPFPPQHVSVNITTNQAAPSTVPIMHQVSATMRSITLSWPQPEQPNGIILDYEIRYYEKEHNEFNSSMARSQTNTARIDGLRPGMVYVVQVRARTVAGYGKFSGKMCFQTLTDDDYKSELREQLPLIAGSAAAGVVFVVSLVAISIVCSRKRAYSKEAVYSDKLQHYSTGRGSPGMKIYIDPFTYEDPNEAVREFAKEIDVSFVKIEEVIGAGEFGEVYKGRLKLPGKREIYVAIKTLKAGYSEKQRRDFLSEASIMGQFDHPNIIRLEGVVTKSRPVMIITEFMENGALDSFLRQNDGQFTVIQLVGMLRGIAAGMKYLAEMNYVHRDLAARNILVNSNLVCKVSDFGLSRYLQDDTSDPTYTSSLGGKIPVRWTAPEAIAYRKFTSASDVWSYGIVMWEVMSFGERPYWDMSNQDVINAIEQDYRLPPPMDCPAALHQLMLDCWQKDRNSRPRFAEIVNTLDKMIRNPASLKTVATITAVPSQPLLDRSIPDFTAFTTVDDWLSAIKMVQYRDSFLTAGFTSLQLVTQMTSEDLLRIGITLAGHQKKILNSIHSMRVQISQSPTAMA

ICK = target: T5, ICK (Homo sapiens, UniProt Q9UPZ9); assay: KINOMEscan panel screen; type: binding; details: read-out: Percent Control(%)
T5 construct: purchased DiscoveRx KINOMEscan (Ambit Biosciences)

PIK3CG = target: T6, PIK3CG (Homo sapiens, UniProt P48736); assay: KINOMEscan panel screen; type: binding; details: read-out: Percent Control(%)
T6 construct: purchased DiscoveRx KINOMEscan (Ambit Biosciences)
T6 sequence (P48736 whole entry): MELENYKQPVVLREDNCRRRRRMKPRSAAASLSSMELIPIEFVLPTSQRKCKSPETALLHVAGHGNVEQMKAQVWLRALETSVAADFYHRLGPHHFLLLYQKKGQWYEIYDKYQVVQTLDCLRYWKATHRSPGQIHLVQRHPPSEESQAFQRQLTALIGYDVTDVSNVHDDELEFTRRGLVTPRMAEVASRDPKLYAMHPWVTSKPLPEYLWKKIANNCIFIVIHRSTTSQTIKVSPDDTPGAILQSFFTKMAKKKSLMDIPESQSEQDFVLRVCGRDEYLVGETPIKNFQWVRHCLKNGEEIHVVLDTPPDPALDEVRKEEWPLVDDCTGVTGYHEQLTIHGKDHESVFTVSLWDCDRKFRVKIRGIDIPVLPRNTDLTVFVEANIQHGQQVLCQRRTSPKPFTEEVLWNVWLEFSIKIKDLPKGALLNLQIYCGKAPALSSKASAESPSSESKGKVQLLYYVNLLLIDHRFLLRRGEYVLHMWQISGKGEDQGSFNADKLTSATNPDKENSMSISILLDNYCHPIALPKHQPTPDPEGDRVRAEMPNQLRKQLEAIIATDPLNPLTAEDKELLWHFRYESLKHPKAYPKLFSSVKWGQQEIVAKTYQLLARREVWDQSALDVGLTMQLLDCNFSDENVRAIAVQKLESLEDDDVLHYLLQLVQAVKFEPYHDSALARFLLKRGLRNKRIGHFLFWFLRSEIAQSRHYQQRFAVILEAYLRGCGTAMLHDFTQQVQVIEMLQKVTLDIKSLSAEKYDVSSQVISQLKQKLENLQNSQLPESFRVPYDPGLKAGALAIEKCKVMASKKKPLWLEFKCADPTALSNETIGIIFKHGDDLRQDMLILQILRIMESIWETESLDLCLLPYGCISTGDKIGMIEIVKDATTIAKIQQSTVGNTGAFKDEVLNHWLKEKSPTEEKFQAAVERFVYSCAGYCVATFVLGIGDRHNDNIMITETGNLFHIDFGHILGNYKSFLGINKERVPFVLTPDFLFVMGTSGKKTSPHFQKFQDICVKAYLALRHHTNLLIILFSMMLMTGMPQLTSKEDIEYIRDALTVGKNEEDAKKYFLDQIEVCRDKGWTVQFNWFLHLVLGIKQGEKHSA

BRSK2 = target: T7, BRSK2 (Homo sapiens, UniProt Q8IWQ3); assay: KINOMEscan panel screen; type: binding; details: read-out: Percent Control(%)
T7 construct: purchased DiscoveRx KINOMEscan (Ambit Biosciences)

ASK1 = target: T8, ASK1 (Homo sapiens, UniProt Q99683); assay: KINOMEscan panel screen; type: binding; details: read-out: Percent Control(%)
T8 construct: purchased DiscoveRx KINOMEscan (Ambit Biosciences)
T8 sequence (Q99683 whole entry): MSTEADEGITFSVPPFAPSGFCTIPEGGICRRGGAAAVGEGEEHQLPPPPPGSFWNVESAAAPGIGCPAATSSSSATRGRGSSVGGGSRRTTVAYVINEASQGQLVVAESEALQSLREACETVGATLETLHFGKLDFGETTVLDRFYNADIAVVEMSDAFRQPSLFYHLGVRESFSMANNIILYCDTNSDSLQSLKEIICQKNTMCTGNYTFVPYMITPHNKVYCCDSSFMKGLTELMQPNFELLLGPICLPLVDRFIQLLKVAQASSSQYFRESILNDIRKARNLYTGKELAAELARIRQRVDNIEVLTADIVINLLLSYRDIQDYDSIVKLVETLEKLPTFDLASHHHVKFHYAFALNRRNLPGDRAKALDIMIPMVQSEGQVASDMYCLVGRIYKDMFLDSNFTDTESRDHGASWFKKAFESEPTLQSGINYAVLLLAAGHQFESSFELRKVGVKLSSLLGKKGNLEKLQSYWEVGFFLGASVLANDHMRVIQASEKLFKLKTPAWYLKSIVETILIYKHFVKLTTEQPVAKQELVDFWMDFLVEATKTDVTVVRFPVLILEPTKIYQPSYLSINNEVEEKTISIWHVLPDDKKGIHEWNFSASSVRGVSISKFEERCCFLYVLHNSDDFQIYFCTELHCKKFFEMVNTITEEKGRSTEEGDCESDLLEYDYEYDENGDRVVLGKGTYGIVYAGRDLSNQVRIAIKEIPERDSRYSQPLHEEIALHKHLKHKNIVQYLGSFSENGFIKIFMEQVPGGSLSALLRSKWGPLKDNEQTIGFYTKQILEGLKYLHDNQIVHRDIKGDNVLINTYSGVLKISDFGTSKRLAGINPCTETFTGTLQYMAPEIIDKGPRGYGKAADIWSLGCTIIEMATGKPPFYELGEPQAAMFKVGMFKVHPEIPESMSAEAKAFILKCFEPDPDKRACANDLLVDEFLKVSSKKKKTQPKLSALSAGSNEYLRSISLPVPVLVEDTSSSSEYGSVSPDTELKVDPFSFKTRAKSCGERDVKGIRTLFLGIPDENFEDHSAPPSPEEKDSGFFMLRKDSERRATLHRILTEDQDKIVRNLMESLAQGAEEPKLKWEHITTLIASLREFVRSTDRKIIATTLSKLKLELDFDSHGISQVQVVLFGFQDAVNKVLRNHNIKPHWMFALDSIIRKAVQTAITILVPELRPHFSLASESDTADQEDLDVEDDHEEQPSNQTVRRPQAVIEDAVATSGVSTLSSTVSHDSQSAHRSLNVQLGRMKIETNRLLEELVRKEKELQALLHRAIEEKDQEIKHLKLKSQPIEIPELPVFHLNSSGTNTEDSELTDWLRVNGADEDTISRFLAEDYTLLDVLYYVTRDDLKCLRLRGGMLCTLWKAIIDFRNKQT

BTK = BTK (Homo sapiens, UniProt Q06187); assay: KINOMEscan panel screen; type: binding; details: read-out: Percent Control(%)
PANC-1 = assay: MTT cell viability assay; details: Homo sapiens, PANC-1, 72 h
FES = target: T9, FES (Homo sapiens, UniProt P07332); assay: KINOMEscan panel screen; type: binding; details: read-out: Percent Control(%)
T9 construct: purchased DiscoveRx KINOMEscan (Ambit Biosciences)

DRAK2 = target: T10, DRAK2 (Homo sapiens, UniProt O94768); assay: KINOMEscan panel screen; type: binding; details: read-out: Percent Control(%)
T10 construct: purchased DiscoveRx KINOMEscan (Ambit Biosciences)
T10 sequence (O94768 whole entry): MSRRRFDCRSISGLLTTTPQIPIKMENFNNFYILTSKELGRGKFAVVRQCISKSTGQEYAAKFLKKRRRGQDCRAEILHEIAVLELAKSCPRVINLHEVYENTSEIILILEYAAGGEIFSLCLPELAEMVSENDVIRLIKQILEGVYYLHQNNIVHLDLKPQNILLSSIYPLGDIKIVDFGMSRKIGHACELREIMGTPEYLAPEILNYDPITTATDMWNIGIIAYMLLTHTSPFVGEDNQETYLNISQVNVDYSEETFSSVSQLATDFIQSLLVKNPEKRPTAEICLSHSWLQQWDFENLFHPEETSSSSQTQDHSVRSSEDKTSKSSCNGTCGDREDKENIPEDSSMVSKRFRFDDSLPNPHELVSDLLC

EPHB4 = target: T11, EPHB4 (Homo sapiens, UniProt P54760); assay: KINOMEscan panel screen; type: binding; details: read-out: Percent Control(%)
T11 construct: purchased DiscoveRx KINOMEscan (Ambit Biosciences)

Molm-13 = assay: MTT cell viability assay; details: Homo sapiens, MOLM-13, 72 h
CSNK1G2 = target: T12, CSNK1G2 (Homo sapiens, UniProt P78368); assay: KINOMEscan panel screen; type: binding; details: read-out: Percent Control(%)
T12 construct: purchased DiscoveRx KINOMEscan (Ambit Biosciences)
T12 sequence (P78368 whole entry): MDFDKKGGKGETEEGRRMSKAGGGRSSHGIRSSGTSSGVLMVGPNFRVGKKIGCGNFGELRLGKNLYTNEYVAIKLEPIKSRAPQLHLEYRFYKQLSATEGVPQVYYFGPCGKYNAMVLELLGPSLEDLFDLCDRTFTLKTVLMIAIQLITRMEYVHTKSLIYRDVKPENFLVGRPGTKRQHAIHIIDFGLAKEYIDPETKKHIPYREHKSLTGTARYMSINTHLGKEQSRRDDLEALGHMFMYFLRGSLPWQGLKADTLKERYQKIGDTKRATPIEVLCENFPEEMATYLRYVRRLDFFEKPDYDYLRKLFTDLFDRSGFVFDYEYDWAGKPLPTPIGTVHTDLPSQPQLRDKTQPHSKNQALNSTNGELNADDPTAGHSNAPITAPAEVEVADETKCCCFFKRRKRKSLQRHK

AKT1 = target: T13, AKT1 (Homo sapiens, UniProt P31749); assay: KINOMEscan panel screen; type: binding; details: read-out: Percent Control(%)
T13 construct: purchased DiscoveRx KINOMEscan (Ambit Biosciences)

FLT3-D835Y = FLT3-D835Y (Homo sapiens, UniProt P36888, D835Y); assay: KINOMEscan kinase binding assay (Kd); design: purchased Ambit Biosciences (KINOMEscan)
FGFR2 = target: T14, FGFR2 (Homo sapiens, UniProt P21802); assay: KINOMEscan panel screen; type: binding; details: read-out: Percent Control(%)
T14 construct: purchased DiscoveRx KINOMEscan (Ambit Biosciences)

p38-gamma = target: T15, p38-gamma (Homo sapiens, UniProt P53778); assay: KINOMEscan panel screen; type: binding; details: read-out: Percent Control(%)
T15 construct: purchased DiscoveRx KINOMEscan (Ambit Biosciences)

PFTAIRE2 = target: T16, PFTAIRE2 (Homo sapiens, UniProt Q96Q40); assay: KINOMEscan panel screen; type: binding; details: read-out: Percent Control(%)
T16 construct: purchased DiscoveRx KINOMEscan (Ambit Biosciences)
T16 sequence (Q96Q40 whole entry): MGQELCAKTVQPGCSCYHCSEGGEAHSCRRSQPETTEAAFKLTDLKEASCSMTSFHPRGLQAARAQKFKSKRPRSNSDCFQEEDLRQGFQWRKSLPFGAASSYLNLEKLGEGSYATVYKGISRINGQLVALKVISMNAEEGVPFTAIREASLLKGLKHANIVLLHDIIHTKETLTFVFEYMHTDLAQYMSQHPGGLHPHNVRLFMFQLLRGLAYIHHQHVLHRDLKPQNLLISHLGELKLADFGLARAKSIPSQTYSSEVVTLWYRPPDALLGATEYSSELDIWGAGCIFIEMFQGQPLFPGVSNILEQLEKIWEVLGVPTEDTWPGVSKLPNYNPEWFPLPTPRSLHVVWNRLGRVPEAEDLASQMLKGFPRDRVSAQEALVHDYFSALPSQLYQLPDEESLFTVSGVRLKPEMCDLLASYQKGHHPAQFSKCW

FLT3-D835H = FLT3-D835H (Homo sapiens, UniProt P36888, D835H); assay: KINOMEscan panel screen; type: binding; design: purchased DiscoveRx KINOMEscan (Ambit Biosciences); details: read-out: Percent Control(%)
PKAC-alpha = target: T17, PKAC-alpha (Homo sapiens, UniProt P17612); assay: KINOMEscan panel screen; type: binding; details: read-out: Percent Control(%)
T17 construct: purchased DiscoveRx KINOMEscan (Ambit Biosciences)

[3] = target: T18, RSK4(Kin.Dom.1-N-terminal) (Homo sapiens, UniProt Q9UK32); assay: KINOMEscan panel screen; type: binding; details: read-out: Percent Control(%)
T18 construct: RSK4(Kin.Dom.1-N-terminal); purchased DiscoveRx KINOMEscan (Ambit Biosciences)
T18 sequence (Q9UK32 73-330 limits assumed): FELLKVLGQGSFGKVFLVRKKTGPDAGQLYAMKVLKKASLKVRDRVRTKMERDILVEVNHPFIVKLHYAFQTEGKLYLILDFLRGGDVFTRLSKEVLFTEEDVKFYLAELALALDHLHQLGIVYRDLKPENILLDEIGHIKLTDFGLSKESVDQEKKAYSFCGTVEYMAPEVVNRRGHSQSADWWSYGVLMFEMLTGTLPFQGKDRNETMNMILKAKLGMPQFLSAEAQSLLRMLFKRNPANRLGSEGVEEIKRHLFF

[4] = test system: HSCs (LSK cells), WBC and RBC; assay: Influence on normal HSCs and blood cells in Balb/c mice; type: in vivo, mouse; details: Balb/c mice, 1, 3, 10 mg/kg/d orally for 21 days
Method: To examine whether SKLB-677 has influence on normal HSCs and normal blood cells, we performed an experiment using a Balb/c mouse model, in which Balb/c mice (n = 8 in each group) were treated with indicated concentrations of SKLB-677 for 21 days, followed by detections of the proportion of HSCs (immunophenotypically characterized as Lineage^−Sca-1^+ c-Kit^+ (LSK) cells), white blood cell (WBC) and red blood cell (RBC) counts. […]
were d etected usin g BD FACSAriaⅢflow c ytometer.
Isolation of murine Bone Marrow ( BM) cells.
Balb/c mice were grouped to 4 groups (4 female mice and 4 male mice p er group) and orally treated with 0, 1, 3, and 10m g/kg/ d SKLB -677 for 21 da ys . […]
Supplementary Figure S7.The influence of SKLB -677 on mouse normal HSC and blood cells (8 mice in each group) . a ,b, The mice were o rally treat ed with indicated concentr ations o f S K LB -677 for 21d, and then W BC and RBC were counted using a blood anal yzer instrument. ns, not statistically significant. c , Th e mice were orally treated with indicated do ses of SK LB-677 for 21d, and the blood marrow cells were collected for the detection of HSC (immunophenot ypicall y ch aracterized as Lineage-Sca-1+c-Kit+, LSK) populationusing corresponding antibodies. d, The statistical data of HSC numbers. ns, not statistically significant. […]

RAF1 = target: T19, RAF1 (Homo sapiens, UniProt P04049); assay: KINOMEscan panel screen; type: binding; details: read-out: Percent Control(%)
T19 construct: purchased DiscoveRx KINOMEscan (Ambit Biosciences)

**Q.** Which IC50 (CDK2) does the source give for `O=C(Nc1ccc(Oc2ncnc3[nH]ncc23)cc1)Nc1ccc(Cl)c(C(F)(F)F)c1` [Compound 1, 1-(4-(1H-pyrazolo[3,4-d]pyrimidin-4-yloxy)phenyl)-3-(4-chloro-3-(trifluoromethyl)phenyl)urea] here?
**A.** The IC50 was > 10 µM.

**Q.** With `CC(C)(C)c1cc(NC(=O)Nc2ccc(Oc3ncnc4[nH]ncc34)c(F)c2)no1` [SKLB-677, 1-(4-(1H-pyrazolo[3,4-d]pyrimidin-4-yloxy)-3-fluorophenyl)-3-(5-tert-butylisoxazol-3-yl)urea] as the molecule, how does the remaining binding at 10 µM (YANK1) read?
**A.** Its remaining binding at 10 µM is 88%.

**Q.** And the remaining binding at 10 µM [1]?
**A.** Its remaining binding at 10 µM is 10%.

**Q.** And the remaining binding at 10 µM [2]?
**A.** Its remaining binding at 10 µM is 10%.

**Q.** What about the remaining binding at 10 µM (EPHB1) of the same molecule?
**A.** The remaining binding at 10 µM was 3.2%.

**Q.** What about the remaining binding at 10 µM (ICK) of the same molecule?
**A.** Its remaining binding at 10 µM is 42%.

**Q.** What about the remaining binding at 10 µM (PIK3CG) of the same molecule?
**A.** The remaining binding at 10 µM was 100%.

**Q.** What about the remaining binding at 10 µM (BRSK2) of the same molecule?
**A.** Its remaining binding at 10 µM is 76%.

**Q.** What about the remaining binding at 10 µM (ASK1) of the same molecule?
**A.** Its remaining binding at 10 µM is 57%.

**Q.** What about the remaining binding at 10 µM (BTK) of the same molecule?
**A.** Its remaining binding at 10 µM is 100%.

**Q.** What about the IC50 (PANC-1) of the same molecule?
**A.** The IC50 was > 10 µM.

**Q.** And the remaining binding at 10 µM (FES)?
**A.** The remaining binding at 10 µM was 7.2%.

**Q.** What about the remaining binding at 10 µM (DRAK2) of the same molecule?
**A.** The remaining binding at 10 µM was 78%.

**Q.** What about the remaining binding at 10 µM (EPHB4) of the same molecule?
**A.** The remaining binding at 10 µM was 1%.

**Q.** And the IC50 (Molm-13)?
**A.** Its IC50 is 0.116 nM.

**Q.** What about the IC50 (Molm-13; read-out: Cell viability IC50) of the same molecule?
**A.** The IC50 was 0.116 nM.

**Q.** And the remaining binding at 10 µM (CSNK1G2)?
**A.** Its remaining binding at 10 µM is 26%.

**Q.** And the remaining binding at 10 µM (AKT1)?
**A.** The remaining binding at 10 µM was 100%.

**Q.** And the Kd (FLT3-D835Y)?
**A.** Its Kd is 1.3 nM.

**Q.** What about the remaining binding at 10 µM (FGFR2) of the same molecule?
**A.** Its remaining binding at 10 µM is 2%.

**Q.** What about the remaining binding at 10 µM (p38-gamma) of the same molecule?
**A.** Its remaining binding at 10 µM is 3.7%.

**Q.** What about the remaining binding at 10 µM (PFTAIRE2) of the same molecule?
**A.** The remaining binding at 10 µM was 0.85%.

**Q.** What about the remaining binding at 10 µM (FLT3-D835H) of the same molecule?
**A.** Its remaining binding at 10 µM is 0%.

**Q.** And the remaining binding at 10 µM (PKAC-alpha)?
**A.** Its remaining binding at 10 µM is 31%.

**Q.** What about the remaining binding at 10 µM [3] of the same molecule?
**A.** Its remaining binding at 10 µM is 64%.

**Q.** And the “HSCs (LSK cells)” value [4]?
**A.** Its value is “not inhibited”.

**Q.** And the “white and red blood counts” value [4]?
**A.** The value was “normal”.

**Q.** What about the remaining binding at 10 µM (RAF1) of the same molecule?
**A.** Its remaining binding at 10 µM is 3.5%.
